From ChEMBL document CHEMBL4814073, “Ring-opening of five-membered heterocycles conjugated 4-isopropylresorcinol scaffold-based benzamides as HSP90 inhibitors suppressing tumor growth in vitro and in vivo” (Eur J Med Chem, 2021)
The source made the active and inactive calls. The rule behind the calls is not given here.

Legend:
A549 [1] = experiment: Induction of apoptosis in human A549 cells assessed as upregulation of p53 protein expression at 0.3 uM incubated for 24 hrs by Western blot analysis; format: functional, cell-based
Cytochrome P450 2B6 = target: T1, Cytochrome P450 2B6 (Homo sapiens, UniProt P20813); experiment: Inhibition of CYP2B6 in human liver microsomes using bupropion as substrate by LC-MS/MS analysis; format: ADME
T1 sequence (P20813 whole entry): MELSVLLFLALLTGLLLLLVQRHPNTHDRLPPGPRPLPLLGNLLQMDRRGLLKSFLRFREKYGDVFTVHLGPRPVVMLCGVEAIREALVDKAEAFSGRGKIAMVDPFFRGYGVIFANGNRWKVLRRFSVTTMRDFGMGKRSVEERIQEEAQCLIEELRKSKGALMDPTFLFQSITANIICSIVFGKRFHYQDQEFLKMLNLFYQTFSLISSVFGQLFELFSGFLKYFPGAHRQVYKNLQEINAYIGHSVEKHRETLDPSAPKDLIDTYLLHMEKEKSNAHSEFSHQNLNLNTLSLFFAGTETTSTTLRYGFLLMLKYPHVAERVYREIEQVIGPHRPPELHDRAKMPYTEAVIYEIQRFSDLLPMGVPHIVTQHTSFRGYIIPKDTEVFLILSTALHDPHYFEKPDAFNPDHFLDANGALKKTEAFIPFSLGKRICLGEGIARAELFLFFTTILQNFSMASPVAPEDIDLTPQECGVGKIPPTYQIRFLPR

Heat shock protein HSP90 [2] = target: T2, Heat shock protein HSP90 (Homo sapiens, UniProt P07900+P08238); experiment: Inhibition of HSP90 in human A549 cells assessed as downregulation of Akt expression incubated for 24 hrs by immunoblot analysis; format: cell-based; conditions: dose microM <=3, time 24.0 hrs
CYP2D6 = CYP2D6 (Homo sapiens, UniProt P10635); experiment: Inhibition of CYP2D6 in human liver microsomes using dextromethorphan as substrate at 50 uM by LC-MS/MS analysis; format: ADME; conditions: probe dextromethorphan
[3] = Half life in Sprague-Dawley rat at 20 mg/kg, po measured after 1 hrs by LC-MS/MS analysis; format: ADME, organism-based; conditions: in vivo
A549 [4] = experiment: Induction of apoptosis in human A549 cells expressing wild type p53 assessed as caspase 3 cleavage at 0.3 uM incubated for 24 hrs by Western blot analysis; format: functional, cell-based
A549 [5] = experiment: Induction of apoptosis in human A549 cells assessed as increase in PARP cleavage at 0.3 to 3 uM measured after 18 hrs by western blot analysis; format: functional, cell-based; conditions: dose 0.3-3 µM
[6] = Metabolic stability in Sprague-Dawley rat hepatocytes assessed as Intrinsic clearance by LC-MS/MS analysis; format: ADME, cell-based, Hepatocyte
[7] = Metabolic stability in CD1 mouse hepatocytes assessed as Intrinsic clearance by LC-MS/MS analysis; format: ADME, cell-based, Hepatocyte
A549 [8] = experiment: Induction of cell cycle arrest in human A549 cells assessed as decrease in cdc25c expression at Ser216 at 0.3 uM incubated for 24 hrs by Western blot analysis; format: functional, cell-based
A549 [9] = experiment: Induction of cell cycle arrest in human A549 cells assessed as M stage arrest by measuring upregulation of p-histone H3 (Ser10) expression at 0.3 uM incubated for 24 hrs by Western blot analysis; format: functional, cell-based
[10] = Cmax in Sprague-Dawley rat at 20 mg/kg, po measured after 1 hrs by LC-MS/MS analysis; format: ADME, organism-based; design: route oral, dose 20 mg/kg, time 1 hrs; conditions: in vivo
[11] = Metabolic stability in human hepatocytes assessed as Intrinsic clearance by LC-MS/MS analysis; format: ADME, cell-based, Hepatocyte
661W = experiment: Cytotoxicity against mouse 661W cells by MTT based vision related toxicity assay; format: cell-based
Heat shock protein HSP90 [12] = target: T2, Heat shock protein HSP90; experiment: Inhibition of HSP90 (unknown origin) assessed as competition of fluorescently labelled geldanamycin binding after 2 hrs by microplate reader analysis; format: protein assay
A549 [13] = experiment: Induction of EGFR degradation in human A549 cells assessed as reduction in eGFR expression at 3 uM by immunoblot analysis; format: functional, cell-based; conditions: time hrs <=24, TDE = time-dependent effect
NCI-H1975 [14] = experiment: Antitumor activity against human NCI-H1975 cells xenografted in BALB/c mouse assessed as tumor growth inhibition at 50 mg/kg, po treated daily relative to control; conditions: read-out: TGI
A549 [15] = experiment: Induction of cell cycle arrest in human A549 cells assessed as decrease in cdc2 expression at Tyr15 at 0.3 uM incubated for 24 hrs by Western blot analysis; format: functional, cell-based
[16] = Tmax in Sprague-Dawley rat at 20 mg/kg, po measured after 1 hrs by LC-MS/MS analysis; format: ADME, organism-based; conditions: in vivo
[17] = Metabolic stability in Beagle dog hepatocytes assessed as Intrinsic clearance by LC-MS/MS analysis; format: ADME, cell-based, Canis lupus familiaris, Hepatocyte
A549 [18] = experiment: Induction of apoptosis in human A549 cells assessed as increase in cleaved caspase 6 protein expression at 0.3 to 3 uM measured after 18 hrs by western blot analysis; format: functional, cell-based; conditions: dose 0.3-3 µM
Cytochrome P450 2C19 = Cytochrome P450 2C19 (Homo sapiens, UniProt P33261); experiment: Inhibition of CYP2C19 in human liver microsomes using S-mephenytoin as substrate by LC-MS/MS analysis; format: ADME
A549 [19] = experiment: Induction of EGFR degradation in human A549 cells assessed as reduction in eGFR expression measured after 24 hrs by immunoblot analysis; format: functional, cell-based; conditions: dose microM <=3, time 24.0 hrs
[20] = Metabolic stability in human hepatocytes assessed as half life by LC-MS/MS analysis; format: ADME, cell-based, Hepatocyte
A549 [21] = experiment: Induction of apoptosis in human A549 cells assessed as increase in cleaved caspase 9 protein expression at 0.3 to 3 uM measured after 18 hrs by western blot analysis; format: functional, cell-based; conditions: dose 0.3-3 µM
Heat shock protein HSP90 [22] = target: T2, Heat shock protein HSP90; experiment: Inhibition of HSP90 in human A549 cells assessed as downregulation of Akt expression at 3 uM by immunoblot analysis; format: cell-based; conditions: time hrs <=24, TDE = time-dependent effect
[23] = Hepatic clearance in Beagle dog by LC-MS/MS analysis; format: ADME, tissue-based, Canis lupus familiaris, Hepatocyte; conditions: hepatocytes
NCI-H1975 [24] = experiment: Antiproliferative activity against human NCI-H1975 cells harbouring EGFR L858R/T790M mutant measured after 48 hrs by SRB assay; conditions: NCI-H1975, 48 h
[25] = Toxicity in BALB/c mouse xenografted with human H1975 cells assessed as reduction in body weight at 25 to 50 mg/kg, po treated daily relative to control; conditions: in vivo
[26] = Hepatic clearance in CD1 mouse by LC-MS/MS analysis; format: ADME, tissue-based, Hepatocyte; conditions: hepatocytes
A549 [27] = experiment: Antitumor activity against human A549 cells xenografted in BALB/c mouse assessed as reduction in tumor growth inhibition at 50 mg/kg, po treated daily relative to control; conditions: read-out: TGI
A549 [28] = experiment: Inhibition of MAPK signaling pathway in human A549 cells at 3 uM incubated upto 24 hrs by immunoblot analysis; format: cell-based; conditions: time hrs <=24, TDE = time-dependent effect
[29] = Apparent permeability across basolateral to apical in human Caco2 cells by LC-MS/MS analysis; format: ADME, cell-based; conditions: Caco-2, read-out: permeability
[30] = Toxicity in BALB/c mouse xenografted with human A549 cells assessed as reduction in body weight at 25 to 50 mg/kg, po treated daily relative to control; conditions: in vivo

Sequence of CYP2D6 (P10635 whole entry): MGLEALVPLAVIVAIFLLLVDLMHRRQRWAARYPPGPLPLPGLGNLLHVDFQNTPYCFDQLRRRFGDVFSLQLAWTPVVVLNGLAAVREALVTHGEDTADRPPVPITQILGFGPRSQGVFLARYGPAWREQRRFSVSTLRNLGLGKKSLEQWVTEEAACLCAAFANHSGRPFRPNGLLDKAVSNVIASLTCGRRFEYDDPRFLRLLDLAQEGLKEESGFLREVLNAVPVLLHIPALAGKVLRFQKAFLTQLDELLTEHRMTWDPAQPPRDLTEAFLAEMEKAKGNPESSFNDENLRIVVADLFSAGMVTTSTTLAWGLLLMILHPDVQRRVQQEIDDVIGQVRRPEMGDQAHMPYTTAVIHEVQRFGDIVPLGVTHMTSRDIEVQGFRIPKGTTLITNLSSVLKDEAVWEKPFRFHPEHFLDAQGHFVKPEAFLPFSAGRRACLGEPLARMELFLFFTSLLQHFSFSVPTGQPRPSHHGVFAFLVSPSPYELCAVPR
Sequence of Cytochrome P450 2C19 (P33261 whole entry): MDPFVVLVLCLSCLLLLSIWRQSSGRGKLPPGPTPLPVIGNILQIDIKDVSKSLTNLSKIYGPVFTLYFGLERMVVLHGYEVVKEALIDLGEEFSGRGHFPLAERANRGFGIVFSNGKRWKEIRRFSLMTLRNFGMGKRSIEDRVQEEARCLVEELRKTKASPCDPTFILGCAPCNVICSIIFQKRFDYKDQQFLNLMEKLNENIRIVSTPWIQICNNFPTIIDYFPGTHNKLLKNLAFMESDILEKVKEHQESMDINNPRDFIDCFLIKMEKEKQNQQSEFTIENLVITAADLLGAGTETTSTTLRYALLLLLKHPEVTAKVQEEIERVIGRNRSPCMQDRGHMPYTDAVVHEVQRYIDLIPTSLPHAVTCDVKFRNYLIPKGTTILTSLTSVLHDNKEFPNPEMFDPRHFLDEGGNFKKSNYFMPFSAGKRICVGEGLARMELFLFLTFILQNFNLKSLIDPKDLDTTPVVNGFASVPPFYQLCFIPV

Compound: CCN(C(=O)c1cc(C(C)C)c(O)cc1O)c1cccnc1
- Activity (A549 [1]): Active
- IC50 (Cytochrome P450 2B6): 37.2 µM
- inhibition (Heat shock protein HSP90 [2]): Dose-Dependent Effect
- inhibition at 50 µM (CYP2D6): 84%
- half-life [3]: 984 min
- Activity (A549 [4]): inactive
- Activity (A549 [5]): Active
- CLint [6]: 751 mL/min/kg
- CLint [7]: 3080 mL/min/kg
- Activity (A549 [8]): Active
- Activity (A549 [9]): Active
- Cmax [10]: 40.5 ng/mL
- CLint [11]: 55.3 mL/min/kg
- Activity (661W): > 10 µM
- IC50 (Heat shock protein HSP90 [12]): 110 nM
- Activity (A549 [13]): Tde
- inhibition in vivo at 50 mg/kg (NCI-H1975 [14]): 34.3%
- Activity (A549 [15]): Active
- Tmax [16]: 15 min
- CLint [17]: 119 mL/min/kg
- Activity (A549 [18]): Active
- IC50 (Cytochrome P450 2C19): 7.8 µM
- Activity (A549 [19]): Dose-Dependent Effect
- half-life [20]: 67.6 min
- Activity (A549 [21]): Active
- inhibition (Heat shock protein HSP90 [22]): Tde
- CLhep predicted [23]: 25 mL/min/kg
- GI50 (NCI-H1975 [24]): 50 nM
- Activity [25]: Non-Toxic
- CLhep predicted [26]: 87.5 mL/min/kg
- inhibition in vivo at 50 mg/kg (A549 [27]): 46.9%
- inhibition (A549 [28]): Tde
- Papp B→A [29]: 30.6 ×10⁻⁶ cm/s
- Activity [30]: Non-Toxic
